In ChEMBL document CHEMBL1201862, “PubChem BioAssay data set” (2004):
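Step 1: Grow cells in 96-well plates. Step 2: Expose to compound for 48 hours at 5 concentrations. Step 3: Interpolate endpoints linearly; if unreached, use highest concentration. The concentration for 50% growth inhibition is given as GI50.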 Calls of active or inactive are those of the source. Cut-off read from the data, not from the text of the source: active = GI50 up to about 1.1 µM and inactive = higher.

What was measured:
Assay in all cases: NCI anticancer screen, dose series, 48 h
[1] = test system: SR
[2] = test system: IGROV-1
[3] = test system: HL-60
[4] = test system: UACC-62
[5] = test system: NCI-H226
[6] = test system: SK-OV-3
[7] = test system: MDA-MB-435
[8] = test system: SK-MEL-2
[9] = test system: SN12C
[10] = test system: A498
[11] = test system: SK-MEL-28
[12] = test system: OVCAR-5
[13] = test system: OVCAR-4
[14] = test system: ACHN
[15] = test system: COLO 205
[16] = test system: M14
[17] = test system: PC-3
[18] = test system: T47D
[19] = test system: LOX IMVI
[20] = test system: SF-539

Structure (SMILES)	GI50 [1]	GI50 [2]	GI50 [3]	GI50 [4]	GI50 [5]	GI50 [6]	GI50 [7]	GI50 [8]	GI50 [9]	GI50 [10]	GI50 [11]	GI50 [12]	GI50 [13]	GI50 [14]	GI50 [15]	GI50 [16]	GI50 [17]	GI50 [18]	GI50 [19]	GI50 [20]
CCCCCCCCCCCCCCCC(=O)OCC(O)C1OC(=O)C(O)=C1O (stereo not given)	58.2 µM (inactive)	37.6 µM (inactive)	29.5 µM (inactive)	27.5 µM (inactive)	22.9 µM (inactive)	35.6 µM (inactive)	21 µM (inactive)	34.1 µM (inactive)	29.9 µM (inactive)	35.7 µM (inactive)	20.4 µM (inactive)	33.9 µM (inactive)	52.8 µM (inactive)	34 µM (inactive)	> 100 µM (inactive)	18.8 µM (inactive)	92 µM (inactive)	97.9 µM (inactive)	26.2 µM (inactive)	27.4 µM (inactive)
Nc1ncnc2c1ccn2C1OC2COP(=O)(O)OC2C1O (stereo not given)	0.173 µM (active)	0.488 µM (active)	< 0.0476 µM (active)	0.0914 µM (active)	2.9 µM (inactive)	0.197 µM (active)	0.273 µM (active)	0.458 µM (active)	0.207 µM (active)	1.15 µM (inactive)	0.515 µM (active)	0.849 µM (active)	0.174 µM (active)	0.0412 µM (active)	0.181 µM (active)	0.069 µM (active)	0.163 µM (active)	0.989 µM (active)	0.0735 µM (active)	3.51 µM (inactive)
C=CC(C)(C)n1cc(C2=C(O)C(=O)C(c3cn(C(C)(C)C=C)c4ccccc34)=C(O)C2=O)c2ccccc21	3.57 µM (inactive)	2.7 µM (inactive)	5.09 µM (inactive)	1.98 µM (inactive)	2.67 µM (inactive)	2.67 µM (inactive)	3.79 µM (inactive)	1.73 µM (inactive)	2.5 µM (inactive)	5.97 µM (inactive)	7.33 µM (inactive)	1.89 µM (inactive)	1.76 µM (inactive)	3.69 µM (inactive)	9.14 µM (inactive)	2.71 µM (inactive)	2.27 µM (inactive)	6.71 µM (inactive)	3.13 µM (inactive)	1.59 µM (inactive)
CN1CCN(c2ccc3[nH]c(-c4ccc5[nH]c(CCCc6ccc(N(CCCl)CCCl)cc6)nc5c4)nc3c2)CC1	96.2 µM (inactive)	13.5 µM (inactive)	62.8 µM (inactive)	84.5 µM (inactive)	> 100 µM (inactive)	> 100 µM (inactive)	> 100 µM (inactive)	> 100 µM (inactive)	> 100 µM (inactive)	> 100 µM (inactive)	> 100 µM (inactive)	> 100 µM (inactive)	> 100 µM (inactive)	> 100 µM (inactive)	> 100 µM (inactive)	> 100 µM (inactive)	> 100 µM (inactive)	> 100 µM (inactive)	60.7 µM (inactive)	> 100 µM (inactive)
Cc1ccc([N+](=O)[O-])c2c(NCCNC(=O)Cn3ccnc3[N+](=O)[O-])ccnc12	> 100 µM (inactive)	25.6 µM (inactive)	> 100 µM (inactive)	22.7 µM (inactive)	26.2 µM (inactive)	21.6 µM (inactive)	94.6 µM (inactive)	43.6 µM (inactive)	38.3 µM (inactive)	31.6 µM (inactive)	57.7 µM (inactive)	35.5 µM (inactive)	33.3 µM (inactive)	44.2 µM (inactive)	41 µM (inactive)	> 100 µM (inactive)	28.8 µM (inactive)	35.2 µM (inactive)	45.8 µM (inactive)	35.5 µM (inactive)
C=C(CN(C)C)C(=O)c1ccc(C)cc1C	1.25 µM (inactive)	7.23 µM (inactive)	0.46 µM (active)	10.5 µM (inactive)	15.5 µM (inactive)	18.5 µM (inactive)	5.94 µM (inactive)	18 µM (inactive)	11.8 µM (inactive)	17.2 µM (inactive)	6.1 µM (inactive)	14.1 µM (inactive)	9.86 µM (inactive)	7.73 µM (inactive)	3.38 µM (inactive)	5.93 µM (inactive)	14.1 µM (inactive)	3.31 µM (inactive)	5.12 µM (inactive)	12.7 µM (inactive)
